Literature values in patent US20100003322A1, “ENTERIC COATED HYDROPHOBIC MATRIX FORMULATION” (priority 2008, published 2010).
Counter-ions that a name gives are not always drawn.

Details: for solubility as described in the package insert: water, for gabapentin also basic and acidic aqueous solutions; for water solubility: volume of water that dissolves 1 g: 1 g of drug in the stated ml of water

SMILES: CC[C@@H](C(N)=O)N1CCCC1=O [levetiracetam, (−)-(S)-α-ethyl-2-oxo-1-pyrrolidine acetamide]
- water solubility: amount dissolved in 100 ml of water (in 100 ml of water): approximately 104 grams
- solubility as described in the package insert: very soluble

SMILES: NCC1(CC(=O)O)CCCCC1 [gabapentin, 1-(aminomethyl)cyclohexaneacetic acid]
- solubility as described in the package insert: freely soluble

SMILES: COc1cccc(C2(O)CCCCC2CN(C)C)c1 (centres unmarked) [tramadol hydrochloride]
- water solubility: volume of water that dissolves 1 g: ~33 mL

SMILES: CCCC(CCC)C(=O)[O-].[Na+] [sodium valproate, sodium 2-propylpentanoate]
- water solubility: volume of water that dissolves 1 g: 0.4 mL
